Data reported in ChEMBL document CHEMBL1833826, “Evaluation of PI polyamide conjugates with eight-base pair recognition and improvement of the aqueous solubility by PEGylation” (Bioorg Med Chem, 2011).
Values after ≈ are worked out from the molar mass of the structure shown. Active and inactive are the calls of the source. No cut-off for these calls is given here.

Key:
[1] = Solubility of the compound in Milli-Q water at 25 degC; assay type: physicochemical
[2] = Chemical stability of the compound in 5 mM sodium phosphate buffer containing 10% DMF at pH 7 assessed as half life by HPLC analysis; assay type: physicochemical
DU-145 = experiment: Cytotoxicity against human DU145 cells after 48 hrs; assay type: functional, cell-based; conditions: DU-145, 48 h
Nucleic Acid [3] = experiment: Induction of 5'-Texas Red-labelled 208-bp DNA alkylation at 5'-ATTTGTCA-3' sequence at 25 to 200 nM after 18 hrs followed by quenching with calf thymus DNA by PAGE analysis; assay type: nucleic-acid assay; conditions: Homo sapiens
A549 = experiment: Cytotoxicity against human A549 cells after 48 hrs; assay type: functional, cell-based; conditions: A549, 48 h
Nucleic Acid [4] = experiment: Induction of 5'-Texas Red-labelled 208-bp DNA alkylation at 5'-AATACTCA-3' sequence at 25 to 200 nM after 18 hrs followed by quenching with calf thymus DNA by PAGE analysis; assay type: nucleic-acid assay
Nucleic Acid [5] = experiment: Induction of 5'-Texas Red-labelled 208-bp DNA alkylation at 5'-TGCATCCA-3' sequence at 25 to 200 nM after 18 hrs followed by quenching with calf thymus DNA by PAGE analysis; assay type: nucleic-acid assay
Nucleic Acid [6] = experiment: Induction of 5'-Texas Red-labelled 208-bp DNA alkylation at 5'-TCCATCCA-3' sequence at 25 to 200 nM after 18 hrs followed by quenching with calf thymus DNA by PAGE analysis; assay type: nucleic-acid assay; conditions: Homo sapiens
Nucleic Acid [7] = experiment: Induction of 5'-Texas Red-labelled 208-bp DNA alkylation at 5'-GTCATCCA-3' sequence at 25 to 200 nM after 18 hrs followed by quenching with calf thymus DNA by PAGE analysis; assay type: nucleic-acid assay
Nucleic Acid [8] = experiment: Induction of 5'-Texas Red-labelled 208-bp DNA alkylation at 5'-ATTCACTA-3' sequence at 25 to 200 nM after 18 hrs followed by quenching with calf thymus DNA by PAGE analysis; assay type: nucleic-acid assay; conditions: Homo sapiens

| Structure (SMILES) | solubility [1] | half-life [2] | IC50 (DU-145) | IC50 (A549) | also measured |
| --- | --- | --- | --- | --- | --- |
| COCCNC(=O)Oc1cc2c(c3ccccc13)C(CCl)CN2C(=O)c1cc2cc(NC(=O)c3cc(NC(=O)c4cc(NC(=O)c5cc(NC(=O)c6cc(NC(=O)CCCNC(=O)c7cc(NC(=O)c8cc(NC(=O)c9nc(NC(=O)CCNC(=O)c%10nc(NC(=O)c%11cc(NC(C)=O)cn%11C)cn%10C)cn9C)cn8C)cn7C)cn6C)cn5C)cn4C)cn3C)ccc2[nH]1 (configuration not stated) | 180 µM (≈ 323 µg/mL) | 3.5 h |  |  |  |
| CC(=O)Nc1cn(C)c(C(=O)Nc2cc(C(=O)Nc3cc(C(=O)NCCC(=O)Nc4cc(C(=O)Nc5cc(C(=O)NCCCC(=O)Nc6cc(C(=O)Nc7cc(C(=O)NCCC(=O)Nc8cn(C)c(C(=O)Nc9ccc%10[nH]c(C(=O)N%11CC(CCl)c%12c%11cc(O)c%11ccccc%12%11)cc%10c9)n8)n(C)c7)n(C)c6)n(C)c5)n(C)c4)n(C)c3)n(C)c2)n1 (configuration not stated) |  |  | 7.9 nM | 29 nM | Activity (Nucleic Acid [3]): Active; Activity (Nucleic Acid [4]): 54% |
| CC(=O)Nc1cn(C)c(C(=O)Nc2cn(C)c(C(=O)Nc3cc(C(=O)NCCC(=O)Nc4cn(C)c(C(=O)Nc5cn(C)c(C(=O)NCCCC(=O)Nc6cc(C(=O)Nc7cc(C(=O)NCCC(=O)Nc8cc(C(=O)Nc9ccc%10[nH]c(C(=O)N%11CC(CCl)c%12c%11cc(O)c%11ccccc%12%11)cc%10c9)n(C)c8)n(C)c7)n(C)c6)n5)n4)n(C)c3)n2)n1 (configuration not stated) |  |  | 45 nM | 240 nM | Activity (Nucleic Acid [5]): 47%; Activity (Nucleic Acid [6]): Active; Activity (Nucleic Acid [7]): 11% |
| CC(=O)Nc1cc(C(=O)Nc2cn(C)c(C(=O)NCCC(=O)Nc3cn(C)c(C(=O)Nc4cc(C(=O)Nc5cc(C(=O)NCCCC(=O)Nc6cc(C(=O)Nc7cc(C(=O)Nc8cc(C(=O)Nc9cc(C(=O)Nc%10ccc%11[nH]c(C(=O)N%12CC(CCl)c%13c%12cc(O)c%12ccccc%13%12)cc%11c%10)n(C)c9)n(C)c8)n(C)c7)n(C)c6)n(C)c5)n(C)c4)n3)n2)n(C)c1 (configuration not stated) |  |  | 62 nM | 240 nM | Activity (Nucleic Acid [8]): Active |
| CC(=O)Nc1cn(C)c(C(=O)Nc2cc(C(=O)Nc3cc(C(=O)NCCC(=O)Nc4cc(C(=O)NCCCC(=O)Nc5cc(C(=O)NCCC(=O)Nc6cn(C)c(C(=O)Nc7ccc8[nH]c(C(=O)N9CC(CCl)c%10c9cc(O)c9ccccc%109)cc8c7)n6)n(C)c5)n(C)c4)n(C)c3)n(C)c2)n1 (configuration not stated) |  |  | 28 nM | 51 nM |  |
| CC(=O)Nc1cn(C)c(C(=O)Nc2cn(C)c(C(=O)Nc3cc(C(=O)Nc4cc(C(=O)NCCCC(=O)Nc5cn(C)c(C(=O)Nc6cn(C)c(C(=O)Nc7ccc8[nH]c(C(=O)N9CC(CCl)c%10c9cc(O)c9ccccc%109)cc8c7)n6)n5)n(C)c4)n(C)c3)n2)n1 (configuration not stated) |  |  | 47 nM | 135 nM |  |
| CC(=O)Nc1cc(C(=O)Nc2cn(C)c(C(=O)NCCC(=O)Nc3cn(C)c(C(=O)Nc4cc(C(=O)Nc5cc(C(=O)NCCCC(=O)Nc6cc(C(=O)Nc7cc(C(=O)Nc8cc(C(=O)Nc9cc(C(=O)Nc%10ccc%11[nH]c(C(=O)N%12CC(CCl)c%13c%12cc(OC(=O)NCCCN(C)C)c%12ccccc%13%12)cc%11c%10)n(C)c9)n(C)c8)n(C)c7)n(C)c6)n(C)c5)n(C)c4)n3)n2)n(C)c1 (configuration not stated) | 230 µM (≈ 418 µg/mL) | 1.1 h |  |  |  |
| CC(=O)Nc1cc(C(=O)Nc2cn(C)c(C(=O)NCCC(=O)Nc3cn(C)c(C(=O)Nc4cc(C(=O)Nc5cc(C(=O)NCCCC(=O)Nc6cc(C(=O)Nc7cc(C(=O)Nc8cc(C(=O)Nc9cc(C(=O)Nc%10ccc%11[nH]c(C(=O)N%12CC(CCl)c%13c%12cc(OC(=O)[C@@H](N)CCCCN)c%12ccccc%13%12)cc%11c%10)n(C)c9)n(C)c8)n(C)c7)n(C)c6)n(C)c5)n(C)c4)n3)n2)n(C)c1 (some centres not stated) | 1200 µM (≈ 2180 µg/mL) | < 1 h |  |  |  |
